Test results from ChEMBL document CHEMBL1149251, “Acetylcholinesterase inhibitory activity of scopolin and scopoletin discovered by virtual screening of natural products” (J Med Chem, 2004).

Tests used:
Rattus norvegicus [1] = experiment: Increase in extracellular acetylcholine at 1 uM in urethane anesthetized Sprague-Dawley rat nucleus accumbens; format: functional
Rattus norvegicus [2] = experiment: Increase in extracellular acetylcholine at 2 uM in urethane anesthetized Sprague-Dawley rat nucleus accumbens; format: functional
Rattus norvegicus [3] = experiment: Increase in extracellular acetylcholine in urethane anesthetized Sprague-Dawley rat nucleus accumbens at 2 umol relative to basal release; format: functional
Acetylcholinesterase [4] = molecular target: T1, Acetylcholinesterase (Homo sapiens, UniProt P22303); experiment: Inhibition of AChE by microplate assay
Rattus norvegicus [5] = experiment: Increase in extracellular acetylcholine in urethane anesthetized Sprague-Dawley rat nucleus accumbens; format: functional
Acetylcholinesterase [6] = molecular target: T1, Acetylcholinesterase; experiment: Inhibition of AChE at 1000 uM by microplate assay

T1 sequence (P22303 whole entry): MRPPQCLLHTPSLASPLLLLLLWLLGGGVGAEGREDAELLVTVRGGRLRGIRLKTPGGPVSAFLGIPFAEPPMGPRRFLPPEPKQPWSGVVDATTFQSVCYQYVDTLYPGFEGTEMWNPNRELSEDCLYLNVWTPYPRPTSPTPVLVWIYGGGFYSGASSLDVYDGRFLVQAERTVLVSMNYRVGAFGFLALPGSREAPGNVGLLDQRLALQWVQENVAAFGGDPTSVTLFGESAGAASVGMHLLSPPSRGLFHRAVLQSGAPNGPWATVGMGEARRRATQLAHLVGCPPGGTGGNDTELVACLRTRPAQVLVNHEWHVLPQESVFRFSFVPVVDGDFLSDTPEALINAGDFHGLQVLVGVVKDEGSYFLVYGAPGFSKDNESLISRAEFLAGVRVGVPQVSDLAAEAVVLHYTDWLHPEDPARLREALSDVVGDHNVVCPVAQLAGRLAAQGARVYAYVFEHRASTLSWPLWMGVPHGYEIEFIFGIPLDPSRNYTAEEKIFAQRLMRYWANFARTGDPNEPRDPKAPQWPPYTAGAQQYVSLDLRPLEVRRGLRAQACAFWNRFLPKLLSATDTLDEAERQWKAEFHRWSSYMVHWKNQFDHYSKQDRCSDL

Structure (SMILES): COc1ccc2c3c1O[C@H]1C[C@@H](O)C=C[C@@]31CCN(C)C2 [GALANTAMINE]
- Activity (Rattus norvegicus [1]): 1.78
- Activity (Rattus norvegicus [2]): 1.68

Structure (SMILES): COc1cc2ccc(=O)oc2cc1O [SCOPOLETIN]
- Activity (Rattus norvegicus [3]): 170%
- IC50 (Acetylcholinesterase [4]): 169 µM
- Activity (Rattus norvegicus [5]): 1.74

Structure (SMILES): COc1cc2ccc(=O)oc2cc1O[C@@H]1O[C@H](CO)[C@@H](O)[C@H](O)[C@H]1O [SCOPOLIN]
- inhibition (Acetylcholinesterase [6]): 30.1%
- Activity (Rattus norvegicus [3]): 300%
- Activity (Acetylcholinesterase [4]): Dose-dependent effect
- Activity (Rattus norvegicus [5]): 3.18
